These results are taken from US20250353891A1 (MEDIMMUNE LIMITED, priority 2022, published 2025).

Starred links: 1 amine or outer side, 2 acyl side, 3 side chain; linkers in the order of their positions; H or OH if unused. Non-standard residues stand in square brackets, D forms with d. Residues, ends and D or L forms follow the SMILES beside them. Groups on a side chain read outwards from the residue. *: point of attachment. C20 diacid = O=C(O)CCCCCCCCCCCCCCCCCCC(=O)*; C18 diacid = O=C(O)CCCCCCCCCCCCCCCCC(=O)*; γGlu = O=C(O)[C@H](CCC(=O)[*:2])N[*:1]; αMeF = C[C@](N)(Cc1ccccc1)C(=O)O; AEEA = NCCOCCOCC(=O)O; Aib = CC(C)(N)C(=O)O

In assay [1] the target is human glucagon receptor (hGCGR) (Homo sapiens, UniProt P47871). Nature of the assay: cAMP production (HTRF) in CHO cells expressing hGCGR. The arrangement: expressed in transfected cells. It is filed as cell-based. The following applies: Table 6, peptides modified at position 17; cAMP in CHO hGCGR cells; geometric mean; read-out: hGluc-R EC50. The method in brief: (§1)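 Read-out: HTRF cAMP (anti-cAMP cryptate donor, cAMP-d2 acceptor in conjugate/lysis buffer), converted to % Delta F and fitted by 4-parameter logistic for EC50. Cell densities were 1×10^5 cells/mL (hGLP-1R) or 2×10^5 cells/mL (hGCGR). Stimulation lasted 30 min at room temperature.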
(Cyclic AMP is a second messenger, typically raised through Gs and lowered through Gi signalling.)

The target in assay [2] is human GLP-1 receptor (hGLP-1R) (Homo sapiens, UniProt P43220). Nature of the assay: cAMP production (HTRF) in CHO cells expressing hGLP-1R. It is filed as cell-based. The arrangement: expressed in transfected cells. The following applies: for EC50: Table 6, peptides modified at position 17, cAMP in CHO hGLP-1R cells, geometric mean, read-out: hGLP-1R EC50; for % Relative Potency Ratio: Table 6, % GLP-1R activity relative to GLP-1 / % GlucR activity relative to glucagon. The procedure, abridged: as §1
human GLP-1 receptor (hGLP-1R), sequence (P43220 24-463): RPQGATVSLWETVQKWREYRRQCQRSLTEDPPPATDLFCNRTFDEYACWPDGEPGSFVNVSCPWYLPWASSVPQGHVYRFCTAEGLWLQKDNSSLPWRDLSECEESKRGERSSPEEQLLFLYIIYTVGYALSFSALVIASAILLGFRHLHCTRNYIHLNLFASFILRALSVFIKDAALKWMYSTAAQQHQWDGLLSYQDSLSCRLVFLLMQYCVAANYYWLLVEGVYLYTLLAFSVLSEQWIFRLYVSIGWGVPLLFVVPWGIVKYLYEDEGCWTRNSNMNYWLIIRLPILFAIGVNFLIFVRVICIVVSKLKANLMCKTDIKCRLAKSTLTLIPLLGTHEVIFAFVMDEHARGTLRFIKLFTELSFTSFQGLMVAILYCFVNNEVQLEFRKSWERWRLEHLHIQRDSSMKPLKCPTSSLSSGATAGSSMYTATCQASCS

human glucagon receptor (hGCGR), sequence (P47871 26-477): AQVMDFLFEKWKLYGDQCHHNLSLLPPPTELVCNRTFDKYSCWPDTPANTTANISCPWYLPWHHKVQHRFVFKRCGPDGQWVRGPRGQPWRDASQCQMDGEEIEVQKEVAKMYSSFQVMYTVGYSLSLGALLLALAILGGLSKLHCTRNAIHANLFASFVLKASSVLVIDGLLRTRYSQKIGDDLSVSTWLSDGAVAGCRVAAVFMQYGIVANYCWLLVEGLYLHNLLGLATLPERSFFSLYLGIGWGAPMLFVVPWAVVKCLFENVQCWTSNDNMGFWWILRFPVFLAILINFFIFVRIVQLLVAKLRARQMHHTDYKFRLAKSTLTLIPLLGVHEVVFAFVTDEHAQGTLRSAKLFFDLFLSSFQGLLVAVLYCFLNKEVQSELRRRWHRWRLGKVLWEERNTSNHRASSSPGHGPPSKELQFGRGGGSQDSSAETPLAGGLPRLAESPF

As usually defined, the EC50 is the concentration that produces a half-maximal response. Consider `CC(C)C[C@H](NC(=O)[C@H](Cc1c[nH]c2ccccc12)NC(=O)[C@H](CCCNC(=N)N)NC(=O)[C@@H](NC(=O)[C@H](Cc1ccccc1)NC(=O)[C@H](CC(=O)O)NC(=O)[C@H](CCC(N)=O)NC(=O)[C@H](C)NC(=O)[C@H](CCCNC(=N)N)NC(=O)[C@H](CCCCNC(=O)COCCOCCNC(=O)COCCOCCNC(=O)CC[C@H](NC(=O)CCCCCCCCCCCCCCCCCCC(=O)O)C(=O)O)NC(=O)[C@H](CO)NC(=O)[C@H](CC(=O)O)NC(=O)[C@H](CC(C)C)NC(=O)[C@](C)(Cc1ccccc1)NC(=O)[C@H](CCCCN)NC(=O)[C@H](CO)NC(=O)[C@@H](NC(=O)[C@H](CC(=O)O)NC(=O)[C@H](CO)NC(=O)[C@@H](NC(=O)[C@H](Cc1ccccc1)NC(=O)[C@@H](NC(=O)CNC(=O)[C@H](CCC(N)=O)NC(=O)C(C)(C)NC(=O)[C@@H](N)Cc1c[nH]cn1)[C@@H](C)O)[C@@H](C)O)C(C)C)C(C)C)C(=O)N[C@@H](CC(C)C)C(=O)NC(C)(C)C(=O)N[C@H](C(=O)N[C@@H](CCC(=O)O)C(=O)O)[C@@H](C)O` [Peptide 151] (H-H[Aib]QGTFTSDVSK[αMeF]LDSK([AEEA-AEEA-γGlu-C20 diacid])RAQDFVRWLL[Aib]TE-OH; N-terminus assumed), for which the EC50 was found to be 0.178 nM in assay [1] and 0.111 nM in assay [2]. For the same compound, the “% Relative Potency Ratio” value in assay [2] was 3.2.

As to `CC(C)C[C@H](NC(=O)[C@H](Cc1c[nH]c2ccccc12)NC(=O)[C@H](CCCNC(=N)N)NC(=O)[C@@H](NC(=O)[C@H](Cc1ccccc1)NC(=O)[C@H](CC(=O)O)NC(=O)[C@H](CCC(N)=O)NC(=O)[C@H](C)NC(=O)[C@H](CCCNC(=N)N)NC(=O)[C@H](CCCCNC(=O)COCCOCCNC(=O)COCCOCCNC(=O)CC[C@H](NC(=O)CCCCCCCCCCCCCCCCC(=O)O)C(=O)O)NC(=O)[C@H](CO)NC(=O)[C@H](CC(=O)O)NC(=O)[C@H](CC(C)C)NC(=O)[C@](C)(Cc1ccccc1)NC(=O)[C@H](CCCCN)NC(=O)[C@H](CO)NC(=O)[C@@H](NC(=O)[C@H](CC(=O)O)NC(=O)[C@H](CO)NC(=O)[C@@H](NC(=O)[C@H](Cc1ccccc1)NC(=O)[C@@H](NC(=O)CNC(=O)[C@H](CCC(N)=O)NC(=O)C(C)(C)NC(=O)[C@@H](N)Cc1c[nH]cn1)[C@@H](C)O)[C@@H](C)O)C(C)C)C(C)C)C(=O)N[C@@H](CC(C)C)C(=O)NC(C)(C)C(=O)N[C@@H](CCC(=O)O)C(=O)O` [Peptide 152] (H-H[Aib]QGTFTSDVSK[αMeF]LDSK([AEEA-AEEA-γGlu-C18 diacid])RAQDFVRWLL[Aib]E-OH; N-terminus assumed), the results for the EC50 in assay [1] and in assay [2] were 0.0204 nM and 0.0119 nM, respectively. The “% Relative Potency Ratio” value in assay [2] was determined as 3.4.

In the case of `CC(C)C[C@H](NC(=O)[C@H](Cc1c[nH]c2ccccc12)NC(=O)[C@H](CCCNC(=N)N)NC(=O)[C@@H](NC(=O)[C@H](Cc1ccccc1)NC(=O)[C@H](CC(=O)O)NC(=O)[C@H](CCC(N)=O)NC(=O)[C@H](C)NC(=O)[C@H](CCCNC(=N)N)NC(=O)[C@H](CCCCNC(=O)COCCOCCNC(=O)COCCOCCNC(=O)CC[C@H](NC(=O)CCCCCCCCCCCCCCCCCCC(=O)O)C(=O)O)NC(=O)[C@H](CO)NC(=O)[C@H](CC(=O)O)NC(=O)[C@H](CC(C)C)NC(=O)[C@](C)(Cc1ccccc1)NC(=O)[C@H](CCCCN)NC(=O)[C@H](CO)NC(=O)[C@@H](NC(=O)[C@H](CC(=O)O)NC(=O)[C@H](CO)NC(=O)[C@@H](NC(=O)[C@H](Cc1ccccc1)NC(=O)[C@@H](NC(=O)CNC(=O)[C@H](CCC(N)=O)NC(=O)C(C)(C)NC(=O)[C@@H](N)Cc1c[nH]cn1)[C@@H](C)O)[C@@H](C)O)C(C)C)C(C)C)C(=O)N[C@@H](CC(C)C)C(=O)NC(C)(C)C(=O)N[C@@H](CCC(=O)O)C(=O)O` [Peptide 153] (H-H[Aib]QGTFTSDVSK[αMeF]LDSK([AEEA-AEEA-γGlu-C20 diacid])RAQDFVRWLL[Aib]E-OH; N-terminus assumed), the EC50 in assay [1] amounted to 0.099 nM. In assay [2], the EC50 was found to be 0.0412 nM and the “% Relative Potency Ratio” value is on record as 4.8.

`CC(C)C[C@H](NC(=O)[C@H](Cc1c[nH]c2ccccc12)NC(=O)[C@H](CCCNC(=N)N)NC(=O)[C@@H](NC(=O)[C@H](Cc1ccccc1)NC(=O)[C@H](CC(=O)O)NC(=O)[C@H](CCC(N)=O)NC(=O)[C@H](C)NC(=O)[C@H](CCCNC(=N)N)NC(=O)[C@H](CCCCNC(=O)COCCOCCNC(=O)COCCOCCNC(=O)CC[C@H](NC(=O)CCCCCCCCCCCCCCCCCCC(=O)O)C(=O)O)NC(=O)[C@H](CO)NC(=O)[C@H](CC(=O)O)NC(=O)[C@H](CC(C)C)NC(=O)[C@](C)(Cc1ccccc1)NC(=O)[C@H](CCCCN)NC(=O)[C@H](CO)NC(=O)[C@@H](NC(=O)[C@H](CC(=O)O)NC(=O)[C@H](CO)NC(=O)[C@@H](NC(=O)[C@H](Cc1ccccc1)NC(=O)[C@@H](NC(=O)CNC(=O)[C@H](CCC(N)=O)NC(=O)C(C)(C)NC(=O)[C@@H](N)Cc1c[nH]cn1)[C@@H](C)O)[C@@H](C)O)C(C)C)C(C)C)C(=O)N[C@@H](CC(C)C)C(=O)N[C@@H](CCC(=O)O)C(=O)NC(C)(C)C(=O)NCC(=O)O` [Peptide 158] (H-H[Aib]QGTFTSDVSK[αMeF]LDSK([AEEA-AEEA-γGlu-C20 diacid])RAQDFVRWLLE[Aib]G-OH; N-terminus assumed): the half-maximal effective concentration (EC50) in assay [1] amounted to 0.333 nM. Moreover, in assay [2], the EC50 stood at 0.304 nM and the “% Relative Potency Ratio” value is 2.2.

On to `CC(C)C[C@H](NC(=O)[C@H](Cc1c[nH]c2ccccc12)NC(=O)[C@H](CCCNC(=N)N)NC(=O)[C@@H](NC(=O)[C@H](Cc1ccccc1)NC(=O)[C@H](CC(=O)O)NC(=O)[C@H](CCC(N)=O)NC(=O)[C@H](C)NC(=O)[C@H](CCCNC(=N)N)NC(=O)[C@H](CCCCNC(=O)COCCOCCNC(=O)COCCOCCNC(=O)CC[C@H](NC(=O)CCCCCCCCCCCCCCCCCCC(=O)O)C(=O)O)NC(=O)[C@@H](NC(=O)[C@H](CC(=O)O)NC(=O)[C@H](CC(C)C)NC(=O)[C@](C)(Cc1ccccc1)NC(=O)[C@H](CCCCN)NC(=O)[C@H](CO)NC(=O)[C@@H](NC(=O)[C@H](CC(=O)O)NC(=O)[C@H](CO)NC(=O)[C@@H](NC(=O)[C@H](Cc1ccccc1)NC(=O)[C@@H](NC(=O)CNC(=O)[C@H](CCC(N)=O)NC(=O)C(C)(C)NC(=O)[C@@H](N)Cc1c[nH]cn1)[C@@H](C)O)[C@@H](C)O)C(C)C)[C@@H](C)O)C(C)C)C(=O)N[C@@H](CC(C)C)C(=O)N[C@@H](CCC(=O)O)C(=O)NC(C)(C)C(=O)NCC(=O)O` [Peptide 159], for which the EC50 in assay [1] and in assay [2] was 0.145 nM throughout. The “% Relative Potency Ratio” value in assay [2] was 2.0.
